Among the data in patent publication US8222281B2, “Carboxylic acid compound” (Daiichi Sankyo Company, Limited, priority 2008, dated 2012) are inhibition in vivo values, retold here.

The subject of one experiment is genetically obese impaired glucose tolerance rats (Crlj:ZUC-Lepr^fa/Lepr^fa rats). Briefly: Oral glucose tolerance test. The class given is in vivo. The note with it: Rattus norvegicus, 0.5 h; dose 0.3 mg/kg oral; glucose 2 g/kg oral 30 minutes after compound; blood glucose 30 minutes after glucose loading; vs control group; read-out: Blood glucose lowering index (%). The method, then: Oral Glucose Tolerance Test
Commercially available genetically obese impaired glucose tolerance rats (Crlj:ZUC-Lepr^fa/Lepr^fa rats, male, 11 weeks of age at the time of use, purchased from Charles River Laboratories Japan, Inc.)
(2) Experimental Method and Results
The rats were preliminarily reared for 2 weeks by feeding them laboratory chow (FR-2, Funabashi Farm Co., Ltd.) ad libitum. Then, the rats were fasted for 15 to 18 hours and used as test animals. A suspension was prepared such that the concentration of a test compound fell within a range from 0.075 to 0.25 mg/mL using a 0.5% solution of methyl cellulose (Wako Pure Chemical Industries, Ltd.). The test compound was orally administered by gavage to the rats (6 rats in each group) at a dose of 0.3 to 1 mg/kg. To the rats in the control group, a 0.5% solution of methyl cellulose was orally administered at a dose of 4 mL/kg. The oral glucose loading was performed such that a glucose solution (Otsuka Glucose Injection 50%, Otsuka Pharmaceutical Co., Ltd.) was orally administered at a dose of 2 g/kg after 30 minutes from administration of the test compound.
The blood was collected from the tail vein of each rat, and the blood glucose level was measured after 30 minutes from the oral glucose loading using a fully automatic blood glucose meter (Glucoroder GXT, A& T Corporation), and the blood glucose lowering index (%) was calculated from the following equation.
Blood glucose lowering index (%)=[1−(blood glucose level in test compound administration group)/(blood glucose level in control group)]×100
Turning to `CCO[C@@H](CC(=O)O)c1ccc(O[C@@H]2CCc3c2cc(F)cc3C(F)(F)F)cc1` [Example 61, (3S)-3-Ethoxy-3-(4-{[(1R)-6-fluoro-4-(trifluoromethyl)-2,3-dihydro-1H-inden-1-yl]oxy}phenyl)-propionic acid], the inhibition in vivo at 0.3 mg/kg came out at 34%.
`CCO[C@@H](CC(=O)O)c1ccc(O[C@@H]2CCc3c(C4CC4)cccc32)cc1` [Example 64, (3S)-3-(4-{[(1R)-4-Cyclopropyl-2,3-dihydro-1H-inden-1-yl]oxy}phenyl)-3-ethoxypropionic acid]: the inhibition in vivo at 0.3 mg/kg is 30%.
For `CCO[C@@H](CC(=O)O)c1ccc(O[C@@H]2CCc3c(C)cc(C)cc32)cc1` [Example 62, (3S)-3-(4-{[(1R)-4,6-Dimethyl-2,3-dihydro-1H-inden-1-yl]oxy}phenyl)-3-ethoxypropionic acid], the inhibition in vivo at 0.3 mg/kg stood at 33%.
`CCO[C@@H](CC(=O)O)c1ccc(O[C@@H]2COc3c(OC(F)(F)F)cccc32)cc1` [Example 55, (3S)-3-Ethoxy-3-(4-{[(3S)-7-(trifluoromethoxy)-2,3-dihydro-1-benzofuran-3-yl]oxy}phenyl)propionic acid]: the inhibition in vivo at 0.3 mg/kg was 38%.
Turning to `CCO[C@@H](CC(=O)O)c1ccc(O[C@@H]2CCc3c2ccc(F)c3C(F)(F)F)cc1` [Example 56, (3S)-3-Ethoxy-3-(4-{[(1R)-5-fluoro-4-(trifluoromethyl)-2,3-dihydro-1H-inden-1-yl]oxy}phenyl)-propionic acid], the inhibition in vivo at 0.3 mg/kg amounted to 40%.
On to `CCO[C@@H](CC(=O)O)c1ccc(O[C@@H]2CCc3c(C(F)F)cccc32)cc1` [Example 59, (3S)-3-(4-{[(1R)-4-(Difluoromethyl)-2,3-dihydro-1H-inden-1-yl]oxy}phenyl)-3-ethoxypropionic acid], for which the inhibition in vivo at 0.3 mg/kg came to 32%.

Staying with this experiment, now noted: Rattus norvegicus, 0.5 h; dose 1 mg/kg oral; glucose 2 g/kg oral 30 minutes after compound; blood glucose 30 minutes after glucose loading; vs control group; read-out: Blood glucose lowering index (%).
On to `CCOC(CC(=O)O)c1ccc(Oc2ccc(C#N)c3ccccc23)cc1` (centres unmarked) [Example 23, 3-{4-[(4-Cyano-1-naphthyl)oxy]phenyl}-3-ethoxypropionic acid], for which the inhibition in vivo at 1 mg/kg was 16%.
Regarding `CCO[C@@H](CC(=O)O)c1ccc(OC2CCc3c2cccc3C(F)(F)F)cc1` (stereo partly drawn) [Example 53, (3S)-3-Ethoxy-3-(4-{[4-(trifluoromethyl)-2,3-dihydro-1H-inden-1-yl]oxy}phenyl)propionic acid], the inhibition in vivo at 1 mg/kg came to 41%.
Same read-out and setting: the same measure for `CCO[C@@H](CC(=O)O)c1ccc(O[C@@H]2CCc3c2cccc3C(F)(F)F)cc1` [Example 51, (3S)-3-Ethoxy-3-(4-{[(1R)-4-(trifluoromethyl)-2,3-dihydro-1H-inden-1-yl]oxy}phenyl)propionic acid]: 42%; for `CCO[C@@H](CC(=O)O)c1ccc(O[C@@H]2CCc3c(C)cccc32)cc1` [Example 58, (3S)-3-Ethoxy-3-(4-{[(1R)-4-methyl-2,3-dihydro-1H-inden-1-yl]oxy}phenyl)propionic acid]: 35%; for `CCO[C@@H](CC(=O)O)c1ccc(O[C@@H]2CCc3c(Cl)cccc32)cc1` [Example 50, (3S)-3-(4-{[(1R)-4-Chloro-2,3-dihydro-1H-inden-1-yl]oxy}phenyl)-3-ethoxypropionic acid]: 38%.
With `CCO[C@@H](CC(=O)O)c1ccc(O[C@@H]2CCc3c(CC)cccc32)cc1` [Example 57, (3S)-3-Ethoxy-3-(4-{[(1R)-4-ethyl-2,3-dihydro-1H-inden-1-yl]oxy}phenyl)propionic acid], the inhibition in vivo at 1 mg/kg was found to be 50%.
The same measure, in the same setting: to `CCO[C@@H](CC(=O)O)c1ccc(OCc2ccc(Cl)c(Cl)c2)cc1` [Example 16, (3S)-3-{4-[(3,4-Dichlorobenzyl)oxy]phenyl}-3-ethoxypropionic acid] belongs 39%.
As to `CCO[C@@H](CC(=O)O)c1ccc(OCc2ccc(C(F)(F)F)cc2)nc1` [Example 18, (3S)-3-Ethoxy-3-(6-{[4-(trifluoromethyl)benzyl]oxy}pyridin-3-yl)propionic acid], the inhibition in vivo at 1 mg/kg worked out at 35%.
`CCOC(CC(=O)O)c1ccc(Oc2cc(Cl)ccc2Cl)cc1` (centres unmarked) [Example 25, 3-[4-(2,5-Dichlorophenoxy)phenyl]-3-ethoxypropionic acid]: the inhibition in vivo at 1 mg/kg came to 39%.
With `CCO[C@@H](CC(=O)O)c1ccc(O[C@H]2CCc3c(Cl)cccc32)cc1` [Example 52, (3S)-3-(4-{[(1S)-4-Chloro-2,3-dihydro-1H-inden-1-yl]oxy}phenyl)-3-ethoxypropionic acid], the inhibition in vivo at 1 mg/kg was found to be 15%.
Same read-out and setting: to `CCO[C@@H](CC(=O)O)c1ccc(O[C@@H]2COc3c2cccc3C(F)(F)F)cc1` [Example 60, (3S)-3-Ethoxy-3-(4-{[(3S)-7-(trifluoromethyl)-2,3-dihydro-1-benzofuran-3-yl]oxy}phenyl)propionic acid] belongs 48%; to `CCOC(CC(=O)O)c1ccc(OCc2ccc(Cl)c(Cl)c2)cc1` (centres unmarked) [Example 1, 3-{4-[(3,4-Dichlorobenzyl)oxy]phenyl}-3-ethoxypropionic acid], 25%.
Consider `CCO[C@@H](CC(=O)O)c1ccc(O[C@@H]2CCc3c(OC(F)(F)F)cccc32)cc1` [Example 63, (3S)-3-Ethoxy-3-(4-{[(1R)-4-(trifluoromethoxy)-2,3-dihydro-1H-inden-1-yl]oxy}phenyl)propionic acid], for which the inhibition in vivo at 1 mg/kg came out at 45%.
Regarding `CCOC(CC(=O)O)c1ccc(Oc2cc(Cl)cc(Cl)c2)cc1` (centres unmarked) [Example 24, 3-[4-(3,5-Dichlorophenoxy)phenyl]-3-ethoxypropionic acid], the inhibition in vivo at 1 mg/kg came out at 37%.
`CCO[C@@H](CC(=O)O)c1ccc(OCc2ccc(C(F)(F)F)cc2)cc1` [Example 49, (3S)-3-Ethoxy-3-(4-{[4-(trifluoromethyl)benzyl]oxy}phenyl)propionic acid]: the inhibition in vivo at 1 mg/kg was 37%.
Same read-out and setting: the same measure for `CCOC(CC(=O)O)c1ccc(OCc2ccccc2C)cc1` (centres unmarked) [Example 20, 3-Ethoxy-3-{4-[(2-methylbenzyl)oxy]phenyl}propionic acid]: 15%.
`CCOC(CC(=O)O)c1ccc(OCc2ccc(C(F)(F)F)cc2)nc1` (centres unmarked) [Example 17, 3-Ethoxy-3-(6-{[4-(trifluoromethyl)benzyl]oxy}pyridin-3-yl)propionic acid]: the inhibition in vivo at 1 mg/kg stood at 38%.
